Laboratory results from patent US5129951A, “Aromatic aldehydes and alcohols as potato tuber sprout inhibitors” (priority 1991, dated 1992).
Entries after “also recorded” stand apart in the source; their conditions may differ. Like-named read-outs stand apart in the source and are kept apart here. Blank lines part the entries; values can stand above or below the molecule they belong to.

How the values were obtained:
[1] = Theoretical saturated headspace concentration calculated from known vapor pressures; type: physicochemical; conditions: calculated from known vapor pressures by Ideal Gas Law
Description: Because these compounds were difficult to quantitate by gas chromatography at the concentration levels in saturated headspaces, theoretical saturated concentrations were calculated by converting known vapor pressures of each compound at 25° C. to molar concentrations using the Ideal Gas Law, […], where n/V is the molar concentration, P is the partial pressure (atm), R is the Ideal Gas constant (0.0821 l atm/mol ° K.), and T is the temperature (° K.).

potato tubers [2] = experiment: Sprout inhibition of tubers exposed to compounds in headspace gas for 7 days (Example 1); type: in vivo, Solanum tuberosum L. cv `Norchip`; conditions: 7 days in saturated headspace gas, 25° C.; for % Eyes Sprouted: dark, control 100, LSD (0.05) 12
fungi [3] = experiment: Fungal growth on tubers exposed to compounds in headspace gas for 7 days (Example 1); type: in vivo; conditions: 7 days in saturated headspace gas, 25° C.; for Fungal Growth: control ++; as to Fungal growth: key: -: no fungi visible; +: = some fungi; ++: heavy fungal growth
Text: (control flasks lacked any compounds).

potato tubers [4] = conditions: in vivo
[5] = cited from earlier work; for Temperature at Which Vapor Pressure Equals 1 mm Hg: vapor pressure 1 mm Hg
plants = conditions: Putnam and Tang; cited from earlier work
potato tubers [6] = experiment: Tuber sprouting after removal from exposure to volatilized aromatics for 1, 2, 4, 7 or 10 days (Example 2); type: in vivo, Solanum tuberosum L. cv `Norchip`; conditions: 14 days after removal; for % Eyes Sprouted: 25° C., LSD (0.05) 24
Description: (§1) Each treatment consisted of placing the tubers in sealed 9.2 l flasks containing excess levels of the treatment compounds at 25° C. as in Example 1. Three tubers were then removed from each treatment after 1, 2, 4, 7, and 10 days, and placed in flasks containing fresh humidified air (free of any additional volatilized compounds) at 25° C. Control tubers were placed in sealed flasks lacking any added compounds and three were removed after 1 and 10 days. Fourteen days after removal from the sealed flasks containing treatment compounds, all tubers were examined for percentage of eyes sprouted, tuber texture, and fungal growth. Each treatment was replicated once and each experiment was repeated once.

fungi [7] = experiment: Fungal growth on tubers after removal from exposure to volatilized aromatics (Example 2); type: in vivo; conditions: 14 days after removal
Description: as §1

potato tubers [8] = experiment: Tuber texture after removal from exposure to volatilized aromatics (Example 2); type: in vivo, Solanum tuberosum L. cv `Norchip`
Description: as §1

potato tubers [9] = experiment: Tuber sprouting 14 days after direct application of aromatic compounds (Example 3); type: in vivo, Solanum tuberosum L. cv `Norchip`; conditions: for % Eyes Sprouted: 25° C., control 98, LSD (0.05) 14
fungi [10] = experiment: Fungal growth 14 days after direct application of aromatic compounds (Example 3); type: in vivo
potato tubers [11] = experiment: Tuber sprouting after removal from exposure to volatilized aromatics for 1, 2, 4, 7 or 10 days (Example 2); type: in vivo, Solanum tuberosum L. cv `Norchip`; conditions: exposure for 10 days, 75 days after removal
potato tubers [12] = experiment: Tuber texture/quality after exposure to compounds in headspace gas for 7 days (Example 1); conditions: 7 days in saturated headspace gas, 25° C.
potato tubers [13] = experiment: Tuber texture and quality 14 days after direct application of aromatic compounds (Example 3)
potato tubers [14] = conditions: in vivo; remark: listed apart in the source

Concentration of Saturated Headspace at 25° C. [1]: 2400 nM | tuber condition (potato tubers [4]): slightly soft
SMILES: OCC=Cc1ccccc1 [Cinnamyl alcohol]
effect on tuber sprouting (potato tubers [2]): no significant effect on tuber sprouting | % Eyes Sprouted (potato tubers [2]): 91% | effect on fungal growth (fungi [3]): present to some extent | Fungal Growth (fungi [3]): + | Solubility in Water at 25° C. [5]: soluble

SMILES: COc1cc(C=O)ccc1O [Vanillin]
Concentration of Saturated Headspace at 25° C. [1]: 100 nM | effect on tuber sprouting (potato tubers [2]): only slightly suppressed sprouting; also recorded: little or no inhibition of sprouting | % Eyes Sprouted (potato tubers [2]): 87% | effect on fungal growth (fungi [3]): present to some extent | Fungal Growth (fungi [3]): + | reported allelopathy (plants): allelopathic | Temperature at Which Vapor Pressure Equals 1 mm Hg [5]: 107.0 °C | Solubility in Water at 25° C. [5]: sl. soluble

SMILES: O=Cc1ccccc1 [Benzaldehyde]
Concentration of Saturated Headspace at 25° C. [1]: 48000 nM | effect on tuber sprouting (potato tubers [2]): completely inhibited sprouting | % Eyes Sprouted (potato tubers [2]): 0% | effect on fungal growth (fungi [3]): prevented any visible fungal growth | Fungal Growth (fungi [3]): - | % Eyes Sprouted (potato tubers [6]; 1 day exposure, control 96): 88% | % Eyes Sprouted (potato tubers [6]; 2 days exposure): 42% | % Eyes Sprouted (potato tubers [6]; 4 days exposure): 14% | % Eyes Sprouted (potato tubers [6]; 7 days exposure): 2% | % Eyes Sprouted (potato tubers [6]; 10 days exposure, control 100): 0% | inhibition of tuber sprouting (potato tubers [6]; exposure for 7 or fewer days): did not completely inhibit sprouting | inhibition of tuber sprouting (potato tubers [6]; exposure for 10 days): completely inhibited sprouting | Fungal Growth (fungi [7]; 1 day exposure, control +): - | Fungal Growth (fungi [7]; 2 days exposure): - | Fungal Growth (fungi [7]; 4 days exposure): - | Fungal Growth (fungi [7]; 7 days exposure): - | Fungal Growth (fungi [7]; 10 days exposure, control +): - | tuber firmness (potato tubers [8]; 1 day treatment, 14 days after removal): slightly soft | % Eyes Sprouted (potato tubers [9]; 1% emulsion (dip)): 43% | inhibition of sprouting (potato tubers [9]; 10% emulsion): completely inhibited sprouting without damaging the potato tubers | % Eyes Sprouted (potato tubers [9]; 10% emulsion (dip)): 0% | % Eyes Sprouted (potato tubers [9]; 100% (pure, sprayed)): 0% | Fungal Growth (fungi [10]; 10% emulsion): heavily covered with fungal growth | Fungal Growth (fungi [10]; 10% emulsion (dip), control +): ++ | Fungal Growth (fungi [10]; 100% (pure, sprayed), control +): ++ | sprouting (potato tubers [11]): remained unsprouted | Temperature at Which Vapor Pressure Equals 1 mm Hg [5]: 26.2 °C | Solubility in Water at 25° C. [5]: sl. soluble | tuber condition (potato tubers [12]): firm and appeared healthy | tuber condition (potato tubers [13]; 10% emulsion): remained hard, with no necrosis or surface pitting | Tuber Texture (potato tubers [13]; 100% (pure, sprayed), control SS): S,N

Concentration of Saturated Headspace at 25° C. [1]: 1300 nM | tuber condition (potato tubers [4]): remained firm
SMILES: CC=Cc1ccc(O)c(OC)c1 [Isoeugenol]
effect on tuber sprouting (potato tubers [2]): no significant effect on tuber sprouting | % Eyes Sprouted (potato tubers [2]): 89% | effect on fungal growth (fungi [3]): especially heavy growth | Fungal Growth (fungi [3]): ++

SMILES: Cc1ccc(C(C)C)c(O)c1 [Thymol]
Concentration of Saturated Headspace at 25° C. [1]: 2900 nM | effect on tuber sprouting (potato tubers [2]): completely inhibited sprouting | % Eyes Sprouted (potato tubers [2]): 0% | effect on fungal growth (fungi [3]): prevented any visible fungal growth | Fungal Growth (fungi [3]): - | % Eyes Sprouted (potato tubers [6]; 1 day exposure, control 96): 83% | % Eyes Sprouted (potato tubers [6]; 2 days exposure): 60% | % Eyes Sprouted (potato tubers [6]; 4 days exposure): 44% | % Eyes Sprouted (potato tubers [6]; 7 days exposure): 6% | % Eyes Sprouted (potato tubers [6]; 10 days exposure, control 100): 0% | inhibition of tuber sprouting (potato tubers [6]; exposure for 7 or fewer days): did not completely inhibit sprouting | inhibition of tuber sprouting (potato tubers [6]; exposure for 10 days): completely inhibited sprouting | Fungal Growth (fungi [7]; 7 days exposure): - | Fungal Growth (fungi [7]; 10 days exposure, control +): - | tuber firmness (potato tubers [8]; in vivo): slightly soft | inhibition of sprouting (potato tubers [9]; 1% emulsion): suppressed sprouting | % Eyes Sprouted (potato tubers [9]; 1% emulsion (dip)): 0% | % Eyes Sprouted (potato tubers [9]; 10% emulsion (dip)): 0% | Fungal Growth (fungi [10]; 1% emulsion (dip), control +): - | Fungal Growth (fungi [10]; 10% emulsion (dip), control +): - | tuber condition (potato tubers [14]): large pitted areas on the tuber surface near each eye | tuber condition (potato tubers [12]): firm and appeared healthy

SMILES: O=C(O)c1ccccc1 [Benzoic acid]
Concentration of Saturated Headspace at 25° C. [1]: 100 nM | effect on tuber sprouting (potato tubers [2]): no significant effect on tuber sprouting; also recorded: little or no inhibition of sprouting | % Eyes Sprouted (potato tubers [2]): 98% | effect on fungal growth (fungi [3]): present to some extent | Fungal Growth (fungi [3]): + | reported allelopathy (plants): allelopathic | Temperature at Which Vapor Pressure Equals 1 mm Hg [5]: 96.0 °C | tuber condition (potato tubers [12]): soft to the touch
